Molecular target: USP1 (construct USP1 (I-785, GG670, 671AA)/UAF1 (I-677)-Flag) (Homo sapiens (Human), UniProt O94782, G670A/G671A)
Assay: Ubiquitin-Rhodamine 110 assay for USP1 activity
Format: biochemical
Conditions: USP1/UAF1 25 pM, Ub-Rh110 25 nM, 30 min preincubation
Outline: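 Two formats with the USP1/UAF1 complex and 25 nM ubiquitin-rhodamine 110 in pH 8.0 Tris buffer with calcium, glutathione and detergent. Single-point screening used 10 µM, 100 pM enzyme and 45 min. Inhibition was set against no-enzyme and DMSO wells.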

USP1 (construct USP1 (I-785, GG670, 671AA)/UAF1 (I-677)-Flag), sequence (O94782 whole entry G670A/G671A): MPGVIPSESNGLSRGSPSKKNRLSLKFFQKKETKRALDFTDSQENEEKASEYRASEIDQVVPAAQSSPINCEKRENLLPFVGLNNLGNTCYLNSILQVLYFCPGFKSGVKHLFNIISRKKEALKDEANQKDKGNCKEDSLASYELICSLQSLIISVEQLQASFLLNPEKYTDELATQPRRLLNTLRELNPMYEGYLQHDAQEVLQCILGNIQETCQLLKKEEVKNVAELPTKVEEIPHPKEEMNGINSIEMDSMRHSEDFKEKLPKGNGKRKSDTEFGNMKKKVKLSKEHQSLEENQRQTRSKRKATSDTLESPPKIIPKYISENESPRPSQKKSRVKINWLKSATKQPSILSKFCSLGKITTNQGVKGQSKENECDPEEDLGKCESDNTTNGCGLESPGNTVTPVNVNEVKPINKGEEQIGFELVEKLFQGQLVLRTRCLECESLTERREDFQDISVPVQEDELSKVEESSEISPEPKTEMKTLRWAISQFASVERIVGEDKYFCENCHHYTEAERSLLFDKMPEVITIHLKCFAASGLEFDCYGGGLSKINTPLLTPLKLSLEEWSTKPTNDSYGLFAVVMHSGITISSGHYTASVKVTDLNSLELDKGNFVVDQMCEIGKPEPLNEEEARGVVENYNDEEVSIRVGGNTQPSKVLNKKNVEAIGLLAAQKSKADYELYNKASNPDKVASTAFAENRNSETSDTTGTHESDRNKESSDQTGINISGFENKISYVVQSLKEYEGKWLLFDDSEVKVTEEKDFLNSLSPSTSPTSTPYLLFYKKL
USP1 (construct USP1 (I-785, GG670, 671AA)/UAF1 (I-677)-Flag), sequence (Q8TAF3 whole entry partner): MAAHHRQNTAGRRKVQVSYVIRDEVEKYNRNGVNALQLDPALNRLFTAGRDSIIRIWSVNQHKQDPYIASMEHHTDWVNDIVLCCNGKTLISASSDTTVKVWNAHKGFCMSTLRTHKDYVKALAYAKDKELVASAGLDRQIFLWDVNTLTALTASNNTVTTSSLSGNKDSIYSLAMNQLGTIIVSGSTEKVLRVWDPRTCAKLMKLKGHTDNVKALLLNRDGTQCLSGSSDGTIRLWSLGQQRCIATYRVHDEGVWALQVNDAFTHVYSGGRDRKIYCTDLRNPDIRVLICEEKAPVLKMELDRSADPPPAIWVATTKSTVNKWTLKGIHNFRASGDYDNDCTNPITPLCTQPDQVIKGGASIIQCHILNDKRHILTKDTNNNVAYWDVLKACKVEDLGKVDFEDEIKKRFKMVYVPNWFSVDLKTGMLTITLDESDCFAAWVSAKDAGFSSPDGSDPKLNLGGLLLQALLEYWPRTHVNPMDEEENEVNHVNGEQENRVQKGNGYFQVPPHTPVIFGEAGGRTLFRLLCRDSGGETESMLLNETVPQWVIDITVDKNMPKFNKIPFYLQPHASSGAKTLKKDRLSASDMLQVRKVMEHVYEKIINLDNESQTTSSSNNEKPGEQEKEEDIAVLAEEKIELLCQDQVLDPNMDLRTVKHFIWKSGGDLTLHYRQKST

Question: With CC(C)c1ncccc1-c1ncc2[nH]c(=O)n(Cc3ccc(-c4nc(C(F)(F)F)cn4C)c(F)c3)c2n1 [Compound I-83, 9-(3-fluoro-4-(1-methyl-4-(trifluoromethyl)-1H-imidazol-2-yl)benzyl)-2-(2-isopropylpyridin-3-yl)-7,9-dihydro-8H-purin-8-one] as the compound, how does the IC50 read?
Answer: < 0.05 µM

Question: For CC(C)c1ncccc1-c1ncc2[nH]c(=O)n(Cc3ccc(-c4nc(C(F)(F)F)cn4C)cc3F)c2n1 [Compound I-84, 9-(2-fluoro-4-(1-methyl-4-(trifluoromethyl)-1H-imidazol-2-yl)benzyl)-2-(2-isopropylpyridin-3-yl)-7,9-dihydro-8H-purin-8-one], which IC50 is on record?
Answer: < 0.05 µM

Question: CC(C)c1ncccc1-c1ncc2[nH]c(=O)n(Cc3c(F)cc(-c4nc(C(F)(F)F)cn4C)cc3F)c2n1 [Compound I-85, 9-(2,6-difluoro-4-(1-methyl-4-(trifluoromethyl)-1H-imidazol-2-yl)benzyl)-2-(2-isopropylpyridin-3-yl)-7,9-dihydro-8H-purin-8-one] was tested. Which IC50 did it give?
Answer: 0.05 to 0.2 µM

Question: For Cn1cc(C(F)(F)F)nc1-c1ccc(Cn2c(=O)[nH]c3cnc(-c4ccccc4[S+](C)[O-])nc32)cc1 (stereo not shown) [Compound I-86, 9-(4-(1-methyl-4-(trifluoromethyl)-1H-imidazol-2-yl)benzyl)-2-(2-(methylsulfinyl)phenyl)-7,9-dihydro-8H-purin-8-one], which IC50 is on record?
Answer: 0.2 to 2 µM

Question: With CC(C)c1ncccc1-c1ncc2[nH]c(=O)n(Cc3ccc(-c4nc(C(F)F)cn4C)cc3)c2n1 [Compound I-87, 9-(4-(4-(difluoromethyl)-1-methyl-1H-imidazol-2-yl)benzyl)-2-(2-isopropylpyridin-3-yl)-7,9-dihydro-8H-purin-8-one] as the compound, how does the IC50 read?
Answer: 0.05 to 0.2 µM

Question: How did the IC50 turn out when O=c1[nH]c2cnc(-c3cccnc3OC(F)F)nc2n1Cc1ccc(-n2ccc(F)n2)cc1 [Compound I-88, 2-(2-(difluoromethoxy)pyridin-3-yl)-9-(4-(3-fluoro-1H-pyrazol-1-yl)benzyl)-7,9-dihydro-8H-purin-8-one] was run?
Answer: 0.2 to 2 µM

Question: Which IC50 does the source give for O=c1[nH]c2cnc(-c3ccccc3OC(F)F)nc2n1Cc1ccc(-n2ccc(F)n2)cc1 [Compound I-89, 2-(2-(difluoromethoxy)phenyl)-9-(4-(3-fluoro-1H-pyrazol-1-yl)benzyl)-7,9-dihydro-8H-purin-8-one] here?
Answer: 0.2 to 2 µM

Question: Which IC50 does the source give for CN(C)c1ccccc1-c1ncc2[nH]c(=O)n(Cc3ccc(-c4nc(C(F)(F)F)cn4C)cc3)c2n1 [Compound I-90, 2-(2-(dimethylamino)phenyl)-9-(4-(1-methyl-4-(trifluoromethyl)-1H-imidazol-2-yl)benzyl)-7,9-dihydro-8H-purin-8-one] here?
Answer: < 0.05 µM

Question: Cc1cccc(-c2ncc3[nH]c(=O)n(Cc4ccc(-n5cccn5)cc4)c3n2)c1C(C)C [Compound I-91, 9-(4-(1H-pyrazol-1-yl)benzyl)-2-(2-isopropyl-3-methylphenyl)-7,9-dihydro-8H-purin-8-one] was tested. Which IC50 did it give?
Answer: < 0.05 µM

Question: With COc1cccc(-c2ncc3[nH]c(=O)n(Cc4ccc(-n5cccn5)cc4)c3n2)c1C(C)C [Compound I-92, 9-(4-(1H-pyrazol-1-yl)benzyl)-2-(2-isopropyl-3-methoxyphenyl)-7,9-dihydro-8H-purin-8-one] as the compound, how does the IC50 read?
Answer: 0.2 to 2 µM

Question: For CC(C)c1c(Cl)cccc1-c1ncc2[nH]c(=O)n(Cc3ccc(-n4cccn4)cc3)c2n1 [Compound I-93, 9-(4-(1H-pyrazol-1-yl)benzyl)-2-(3-chloro-2-isopropylphenyl)-7,9-dihydro-8H-purin-8-one], which IC50 is on record?
Answer: 0.05 to 0.2 µM

Question: How did the IC50 turn out when O=c1[nH]c2cnc(-c3ccccc3C3CC3)nc2n1Cc1ccc(-n2cccn2)cc1 [Compound I-94, 9-(4-(1H-pyrazol-1-yl)benzyl)-2-(2-cyclopropylphenyl)-7,9-dihydro-8H-purin-8-one] was run?
Answer: < 0.05 µM

Question: Which IC50 does the source give for O=c1[nH]c2cnc(-c3cc(Cl)ccc3C3CC3)nc2n1Cc1ccc(-n2cccn2)cc1 [Compound I-95, 9-(4-(1H-pyrazol-1-yl)benzyl)-2-(5-chloro-2-cyclopropylphenyl)-7,9-dihydro-8H-purin-8-one] here?
Answer: < 0.05 µM

Question: With CC(C)c1cccc(F)c1-c1ncc2[nH]c(=O)n(Cc3ccc(-n4cccn4)cc3)c2n1 [Compound I-96, 9-(4-(1H-pyrazol-1-yl)benzyl)-2-(2-fluoro-6-isopropylphenyl)-7,9-dihydro-8H-purin-8-one] as the compound, how does the IC50 read?
Answer: < 0.05 µM

Question: How did the IC50 turn out when O=c1[nH]c2cnc(-c3cc(C(F)(F)F)ccc3C3CC3)nc2n1Cc1ccc(-n2cccn2)cc1 [Compound I-97, 9-(4-(1H-pyrazol-1-yl)benzyl)-2-(2-cyclopropyl-5-(trifluoromethyl)phenyl)-7,9-dihydro-8H-purin-8-one] was run?
Answer: 0.2 to 2 µM

Question: How did the IC50 turn out when CCOC(=O)c1cc(C)nn1-c1ccc(Cn2c(=O)[nH]c3cnc(-c4ccccc4C4CC4)nc32)cc1 [Compound I-99, ethyl 1-(4-((2-(2-cyclopropylphenyl)-8-oxo-7,8-dihydro-9H-purin-9-yl)methyl)phenyl)-3-methyl-1H-pyrazole-5-carboxylate] was run?
Answer: < 0.05 µM

Question: How did the IC50 turn out when Cn1cc(C(F)(F)F)nc1-c1ccc(Cn2c(=O)n(C3CC3)c3cnc(-c4ccccc4C4CC4)nc32)cc1 [Compound I-100, 7-cyclopropyl-2-(2-cyclopropylphenyl)-9-(4-(1-methyl-4-(trifluoromethyl)-1H-imidazol-2-yl)benzyl)-7,9-dihydro-8H-purin-8-one] was run?
Answer: < 0.05 µM

Question: Which IC50 does the source give for Cn1cc(C(F)(F)F)nc1-c1ccc(Cn2c(=O)n(C3CC3)c3cnc(-c4cccnc4C4CC4)nc32)cc1 [Compound I-101, 7-cyclopropyl-2-(2-cyclopropylpyridin-3-yl)-9-(4-(1-methyl-4-(trifluoromethyl)-1H-imidazol-2-yl)benzyl)-7,9-dihydro-8H-purin-8-one] here?
Answer: < 0.05 µM

Question: Which IC50 does the source give for CC(C)c1ccccc1-c1ncc2[nH]c(=O)n(Cc3ccc(-n4ncc5c4CNC5)cc3)c2n1 [Compound I-102, 9-(4-(5,6-dihydropyrrolo[3,4-c]pyrazol-1(4H)-yl)benzyl)-2-(2-isopropylphenyl)-7,9-dihydro-8H-purin-8-one] here?
Answer: 0.2 to 2 µM

Question: Which IC50 does the source give for CC(C)c1c(F)cccc1-c1ncc2[nH]c(=O)n(Cc3ccc(-n4ncc5c4CNC5)cc3)c2n1 [Compound I-103, 9-(4-(5,6-dihydropyrrolo[3,4-c]pyrazol-1(4H)-yl)benzyl)-2-(3-fluoro-2-isopropylphenyl)-7,9-dihydro-8H-purin-8-one] here?
Answer: 0.05 to 0.2 µM

Question: With CC(C)c1c(F)cccc1-c1ncc2[nH]c(=O)n(Cc3ccc(-n4cc5c(n4)CNC5)cc3)c2n1 [Compound I-104, 9-(4-(5,6-dihydropyrrolo[3,4-c]pyrazol-2(4H)-yl)benzyl)-2-(3-fluoro-2-isopropylphenyl)-7,9-dihydro-8H-purin-8-one] as the compound, how does the IC50 read?
Answer: 0.2 to 2 µM

Question: Which IC50 does the source give for CC(C)c1ncccc1-c1ncc2c(n1)n(Cc1ccc(-c3nc(C(F)(F)F)cn3C)cc1)c(=O)n2C [Compound I-105, 2-(2-Isopropylpyridin-3-yl)-7-methyl-9-(4-(1-methyl-4-(trifluoromethyl)-1H-imidazol-2-yl)benzyl)-7,9-dihydro-8H-purin-8-one] here?
Answer: < 0.05 µM

Question: Which IC50 does the source give for CC(C)c1ccccc1-c1ncc2c(n1)n(Cc1ccc(-c3nc(C(F)(F)F)cn3CCO)cc1)c(=O)n2C [Compound I-106, 9-(4-(1-(2-Hydroxyethyl)-4-(trifluoromethyl)-1H-imidazol-2-yl)benzyl)-2-(2-isopropylphenyl)-7-methyl-7,9-dihydro-8H-purin-8-one] here?
Answer: < 0.05 µM

Question: For CC(C)c1ccccc1-c1ncc2c(n1)n(Cc1ccc(-n3cccn3)cc1)c(=O)n2CCN(C)C [Compound I-107, 9-(4-(1H-pyrazol-1-yl)benzyl)-7-(2-(dimethylamino)ethyl)-2-(2-isopropylphenyl)-7,9-dihydro-8H-purin-8-one], which IC50 is on record?
Answer: 0.2 to 2 µM

Question: CC(C)c1ncccc1-c1ncc2c(n1)n(C1(c3ccc(-c4nc(C(F)(F)F)cn4C)cc3)CC1)c(=O)n2C [Compound I-108, 2-(2-isopropylpyridin-3-yl)-7-methyl-9-(1-(4-(1-methyl-4-(trifluoromethyl)-1H-imidazol-2-yl)phenyl)cyclopropyl)-7,9-dihydro-8H-purin-8-one] was tested. Which IC50 did it give?
Answer: < 0.05 µM

Question: How did the IC50 turn out when Cc1cc(N2CCC2)nn1-c1ccc(Cn2c(=O)n(C)c3cnc(-c4cccnc4C(C)C)nc32)cc1 [Compound I-109, 9-(4-(3-(azetidin-1-yl)-5-methyl-1H-pyrazol-1-yl)benzyl)-2-(2-isopropylpyridin-3-yl)-7-methyl-7,9-dihydro-8H-purin-8-one] was run?
Answer: 0.05 to 0.2 µM

Question: Which IC50 does the source give for CC(C)c1ccccc1-c1ncc2c(n1)n(Cc1ccc(-c3nc(C(F)(F)F)cn3C3COC3)cc1)c(=O)n2C [Compound I-110, 2-(2-isopropylphenyl)-7-methyl-9-(4-(1-(oxetan-3-yl)-4-(trifluoromethyl)-1H-imidazol-2-yl)benzyl)-7,9-dihydro-8H-purin-8-one] here?
Answer: < 0.05 µM

Question: With Cc1cc(C)n([C@H]2CC[C@@H](Cn3c(=O)n(C)c4cnc(-c5ccccc5C(C)C)nc43)CC2)n1 [Compound I-111, 9-(((1s,4s)-4-(3,5-dimethyl-1H-pyrazol-1-yl)cyclohexyl)methyl)-2-(2-isopropylphenyl)-7-methyl-7,9-dihydro-8H-purin-8-one] as the compound, how does the IC50 read?
Answer: 0.05 to 0.2 µM

Question: For Cc1cc(C)n([C@H]2CC[C@H](Cn3c(=O)n(C)c4cnc(-c5ccccc5C(C)C)nc43)CC2)n1 [Compound I-112, 9-(((1r,4r)-4-(3,5-dimethyl-1H-pyrazol-1-yl)cyclohexyl)methyl)-2-(2-isopropylphenyl)-7-methyl-7,9-dihydro-8H-purin-8-one], which IC50 is on record?
Answer: > 2 µM

Question: How did the IC50 turn out when Cc1cc(C(F)(F)F)nn1-c1ccc(Cn2c(=O)n(C)c3cnc(-c4cccnc4C(C)C)nc32)cc1 [Compound I-113, 2-(2-isopropylpyridin-3-yl)-7-methyl-9-(4-(5-methyl-3-(trifluoromethyl)-1H-pyrazol-1-yl)benzyl)-7,9-dihydro-8H-purin-8-one] was run?
Answer: < 0.05 µM

Question: Which IC50 does the source give for CC(C)c1ncccc1-c1ncc2c(n1)n(Cc1ccc(-c3nc(C(F)(F)F)cn3C3CC3)cc1)c(=O)n2C [Compound I-114, 9-(4-(1-cyclopropyl-4-(trifluoromethyl)-1H-imidazol-2-yl)benzyl)-2-(2-isopropylpyridin-3-yl)-7-methyl-7,9-dihydro-8H-purin-8-one] here?
Answer: < 0.05 µM

Reference: patent US10189841B2, “Purinones as ubiquitin-specific protease 1 inhibitors” (Forma Therapeutics, Inc., priority 2015, dated 2019)
